The target in data set [1] is T1, N-terminally GST-tagged human β-catenin (Homo sapiens, UniProt P35222).
T1 sequence (P35222 1-781): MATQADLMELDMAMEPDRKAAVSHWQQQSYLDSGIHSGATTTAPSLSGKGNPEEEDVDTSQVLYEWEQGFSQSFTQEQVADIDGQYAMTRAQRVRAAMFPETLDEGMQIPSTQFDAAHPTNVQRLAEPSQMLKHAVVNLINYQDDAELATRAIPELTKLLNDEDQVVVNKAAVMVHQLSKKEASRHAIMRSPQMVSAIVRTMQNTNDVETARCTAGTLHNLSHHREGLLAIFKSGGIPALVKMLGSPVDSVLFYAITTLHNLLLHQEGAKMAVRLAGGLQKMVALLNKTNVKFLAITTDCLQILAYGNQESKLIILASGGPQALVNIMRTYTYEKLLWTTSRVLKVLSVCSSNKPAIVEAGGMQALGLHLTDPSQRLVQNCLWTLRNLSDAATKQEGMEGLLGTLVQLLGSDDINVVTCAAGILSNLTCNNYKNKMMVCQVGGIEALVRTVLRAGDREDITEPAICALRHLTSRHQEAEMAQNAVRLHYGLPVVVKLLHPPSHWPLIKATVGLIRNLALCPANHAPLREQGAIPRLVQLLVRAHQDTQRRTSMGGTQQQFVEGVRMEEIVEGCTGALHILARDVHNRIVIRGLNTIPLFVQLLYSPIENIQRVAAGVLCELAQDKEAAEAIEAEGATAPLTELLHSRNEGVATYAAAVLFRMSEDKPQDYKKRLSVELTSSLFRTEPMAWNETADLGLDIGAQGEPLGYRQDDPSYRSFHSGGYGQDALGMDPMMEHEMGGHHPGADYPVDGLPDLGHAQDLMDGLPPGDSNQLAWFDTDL
Nature of the data set: Fluorescence polarization assay with FITC-labeled peptides and GST-tagged β-catenin. The format is binding. The note with it: for increase in binding affinity to β-catenin compared to the wild type sequence (ax-WT): versus Axin wild type peptide. The text has this: FIG. 4 depicts (a) superimposed crystal structures of TCF4 (PDB ID: 2GL7)[14] and Axin (PDB ID: 1QZ7)[15] bound to β-catenin; (b) sequences of modified peptides with NCBI accession and covered amino acids (* amino acids 29-37 were replaced by two βAla); (c) fluorescence polarization assays using FITC-labeled peptides and N-terminally GST-tagged human β-catenin (with corresponding Kds).
FIG. 7 depicts (a) fluorescently labeled peptide sequences resulting from phage display affinity optimization (entries 1, 4 and 17/18 in FIG. 6b); (b) fluorescence polarization assay with fluorescently labeled peptides and N-terminally GST-tagged human β-catenin (with corresponding Kds).
Peptide sequences derived from TCF4 and Axin were synthesized and fluorescently labeled (FIG. 4b) and the affinity of both binding domains to β-catenin was assessed. […] Therefore, the Axin derivative was considered to be the most promising candidate for the hydrocarbon stapling approach. It combines a relatively short and helical peptide sequence (15 amino acids) with moderate binding of β-catenin (Kd of ˜5 μM).
On the technique in general: In fluorescence polarisation assays a small probe gives low polarisation when free and higher when bound to something large.

Data set [2] is described as follows: Circular dichroism spectra with calculated helicities. It is filed as physicochemical. From the text: Based on the crystal structure of the Axin/β-catenin complex there are four residues (yellow, FIG. 5a) that are not involved in β-catenin binding[15] and should be suitable for modification without affecting binding. Taking into consideration that only i,i+4 (one helix turn) and i,i+7 5 (two helix turns) positioning of modified residues allows sufficient cross-linking[8] three hydrocarbon stapled sequences (STAX-1, 2 and 3, FIG. 5b) were designed. Circular dichroism spectra of the fluorescently labeled peptides were recorded allowing the calculation of helicities (FIG. 5c). […] Therefore, STAX-3 was chosen as starting point for further optimizations.

In a further data set the test system is SW480 cells. Description: Cell penetration assay monitoring fluorescence of FITC-labeled peptides. The format is cell-based. Particulars: 10 μM peptide in 10% serum, 24 h, confocal microscope. As for the experimental part: Besides its affinity to β-catenin it is cell permeability that impacts the capability of a peptide to interfere with the intracellular target. Therefore, the ability to penetrate cells was tested by monitoring fluorescence of the fluorescein(FITC)-labeled peptides.

Data set [3] relates to Wnt-dependent luciferase reporter. Description: Dual-luciferase Wnt-dependent reporter gene assay. It is filed as cell-based. Particulars: firefly signal normalized to Renilla luciferase control. How it is done:
FIG. 10 depicts (a) stapled peptide sequences with corresponding Kd to β-catenin (blue boxes mark mutations meant to disrupt binding to (β-catenin, charges at pH 7.5 are calculated values); (b) inhibition of a Wnt-dependent luciferase reporter (dual-luciferase assay: signal was normalized to Renilla luciferase control); (c) dose-dependent effect of STAX-147 and STAX-160 in the dual-luciferase assay.
The cell penetrating stapled peptides were tested for their effects on transcriptional activity using an established reporter gene assay. In this dual-luciferase assay firefly luciferase is transcriptionally regulated by constitutively activated Wnt signaling. The firefly signal is normalized to the Renilla luciferase control.
In general terms: Reporter assays use an easily measured gene product as a stand-in for the process of interest.

Entries after “also recorded” stand apart in the source; their conditions may differ. Positions of bridges follow the written chain, without caps; N, C: chain ends. Non-standard residues stand in square brackets, D forms with d. Residues, ends and D or L forms follow the SMILES beside them. *: point of attachment. FITC = O=C1OC2(c3ccc(O)cc3Oc3cc(O)ccc32)c2ccc(NC(=S)*)cc21; S5 = C=CCCC[C@](C)(N)C(=O)O; βAla = NCCC(=O)O

Turning to `CC[C@H](C)[C@@H]1NC(=O)[C@@](C)(NC(=O)[C@H](CCC(=O)O)NC(=O)[C@@H]2CCCN2C(=O)[C@H](CC(N)=O)NC(=O)[C@H](CCC(=O)O)NC(=O)CCNC(=S)Nc2ccc3c(c2)C(=O)OC32c3ccc(O)cc3Oc3cc(O)ccc32)CCCC=CCCC[C@@](C)(C(=O)N[C@@H](Cc2c[nH]cn2)C(=O)N[C@H](C(=O)N[C@@H](CCC(N)=O)C(=O)N[C@@H](CCCNC(=N)N)C(=O)N[C@H](C(=O)N[C@@H](CCSC)C(N)=O)C(C)C)C(C)C)NC(=O)[C@H](CC(=O)O)NC(=O)[C@H](CC(C)C)NC1=O` [STAX-3] ({FITC-βAla}-ENPE[S5]ILD[S5]HVQRVM-NH2; staple 5-9), the “change of affinity to β-catenin (in words)” value in data set [1] (compared to wild type or parent peptide) is “increased”. The “increase in binding affinity to β-catenin compared to the wild type sequence (ax-WT)” value (from here on “increase in binding affinity … (ax-WT)”) in data set [1] was 80 fold. Also, the helicity in data set [2] (calculated from circular dichroism spectra of the fluorescently labeled peptide) was 51%. Also, the “change of helicity (in words)” value in data set [2] (compared to the wild type sequence (ax-WT)) was “increased”. For the same molecule, the “increase in helicity compared to the wild type sequence (ax-WT)” value in data set [2] (versus ax-WT) was 3.4 fold. Besides, the cell permeability entry in the data set on SW480 cells is reported as “non cell permeable”.

In the case of `CC[C@H](C)[C@@H]1NC(=O)[C@@](C)(NC(=O)[C@H](CCC(N)=O)NC(=O)[C@@H]2CCCN2C(=O)[C@H](Cc2c[nH]c3ccccc23)NC(=O)[C@H](CCCNC(=N)N)NC(=O)COCCOCCNC(=S)Nc2ccc3c(c2)C(=O)OC32c3ccc(O)cc3Oc3cc(O)ccc32)CCCC=CCCC[C@@](C)(C(=O)N[C@@H](Cc2c[nH]cn2)C(=O)N[C@H](C(=O)N[C@@H](CCCNC(=N)N)C(=O)N[C@@H](CCCNC(=N)N)C(=O)N[C@H](C(=O)N[C@@H](Cc2c[nH]c3ccccc23)C(=O)N[C@@H](CCCNC(=N)N)C(N)=O)C(C)C)C(C)C)NC(=O)[C@H](CC(=O)O)NC(=O)[C@H](CC(C)C)NC1=O` [STAX-090], the “increase in binding affinity … (ax-WT)” value in data set [1] is recorded as “more than 600 fold”. For the same molecule, the “increase in binding affinity to β-catenin upon sequence modification” value in data set [1] (versus the preceding stapled peptide of the optimization series) is “two fold increase”. Further, the cell permeability result in the data set with SW480 cells is “increased further; also recorded: good permeability”. For the same molecule, the “effect on Wnt-dependent luciferase reporter activity” value in data set [3] is “repression of luciferase activity”.

Consider `CC[C@H](C)[C@H](NC(=O)[C@H](CO)NC(=O)[C@H](CCC(=O)O)NC(=O)[C@@H]1CCCN1C(=O)[C@H](Cc1c[nH]c2ccccc12)NC(=O)[C@H](CCCNC(=N)N)NC(=O)CCNC(=S)Nc1ccc2c(c1)C(=O)OC21c2ccc(O)cc2Oc2cc(O)ccc21)C(=O)N[C@@H](CC(C)C)C(=O)N[C@@H](CC(=O)O)C(=O)N[C@@H](CCC(=O)O)C(=O)N[C@@H](Cc1c[nH]cn1)C(=O)N[C@@H](Cc1c[nH]c2ccccc12)C(=O)N[C@@H](CCC(=O)O)C(=O)N[C@@H](CCCNC(=N)N)C(=O)N[C@H](C(=O)N[C@@H](CCSC)C(=O)N[C@@H](CCCNC(=N)N)C(N)=O)C(C)C` [phage-01] ({FITC-βAla}-RWPESILDEHWERVMR-NH2), for which the “increase in binding affinity … (ax-WT)” value in data set [1] worked out at 39 fold.

For `CC[C@H](C)[C@H](NC(=O)[C@H](CO)NC(=O)[C@H](CCC(=O)O)NC(=O)[C@@H]1CCCN1C(=O)[C@H](CC(N)=O)NC(=O)[C@H](CCC(=O)O)NC(=O)CCNC(=S)Nc1ccc2c(c1)C(=O)OC21c2ccc(O)cc2Oc2cc(O)ccc21)C(=O)N[C@@H](CC(C)C)C(=O)N[C@@H](CC(=O)O)C(=O)N[C@@H](CCC(=O)O)C(=O)N[C@@H](Cc1c[nH]cn1)C(=O)N[C@H](C(=O)N[C@@H](CCC(N)=O)C(=O)N[C@@H](CCCNC(=N)N)C(=O)N[C@H](C(=O)N[C@@H](Cc1c[nH]c2ccccc12)C(=O)N[C@@H](CCCNC(=N)N)C(N)=O)C(C)C)C(C)C` [phage-17/18] ({FITC-βAla}-ENPESILDEHVQRVWR-NH2), the “increase in binding affinity … (ax-WT)” value in data set [1] worked out at 8 fold.

(Values after patent US8957026B2, “Beta-catenin targeting peptides and uses thereof” (President and Fellows of Harvard College, priority 2010, dated 2015).)
